From ChEMBL document CHEMBL1201862, “PubChem BioAssay data set” (2004)
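These data come from cells grown in 96-well plates and exposed to compound for 48 hours at five concentrations. GI50 marks 50% less growth.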 The source made the active and inactive calls. No stated cut-off is given here; in the data, active = GI50 up to about 1.1 µM and inactive = higher.

Key:
Assay in all cases: NCI anticancer screen, dose series, 48 h
786-0 = tested on: 786-0
A498 = tested on: A498
A549 = tested on: A549
ACHN = tested on: ACHN
CCRF-CEM = tested on: CCRF-CEM
COLO 205 = tested on: COLO 205
DLD-1 = tested on: DLD-1
DMS-114 = tested on: DMS-114
DMS-273 = tested on: DMS-273
EKVX = tested on: EKVX
HCC 2998 = tested on: HCC 2998
HCT-116 = tested on: HCT-116
HCT-15 = tested on: HCT-15
HL-60 = tested on: HL-60
HOP-18 = tested on: HOP-18
HOP-62 = tested on: HOP-62
HT-29 = tested on: HT-29
IGROV-1 = tested on: IGROV-1
K562 = tested on: K562
KM-20L2 = tested on: KM-20L2
KM12 = tested on: KM12
LOX IMVI = tested on: LOX IMVI
LXFL 529 = tested on: LXFL 529
M14 = tested on: M14
M19-MEL = tested on: M19-MEL
Malme-3M = tested on: Malme-3M
NCI-H226 = tested on: NCI-H226
NCI-H23 = tested on: NCI-H23
NCI-H460 = tested on: NCI-H460
NCI-H522 = tested on: NCI-H522
OVCAR-3 = tested on: OVCAR-3
OVCAR-4 = tested on: OVCAR-4
OVCAR-5 = tested on: OVCAR-5
OVCAR-8 = tested on: OVCAR-8
RXF 393 = tested on: RXF 393
RXF 631 = tested on: RXF 631
SF-268 = tested on: SF-268
SF-295 = tested on: SF-295
SF-539 = tested on: SF-539
SK-MEL-28 = tested on: SK-MEL-28
SK-MEL-2 = tested on: SK-MEL-2
SK-MEL-5 = tested on: SK-MEL-5
SK-OV-3 = tested on: SK-OV-3
SN12C = tested on: SN12C
SNB-19 = tested on: SNB-19
SNB-75 = tested on: SNB-75
SNB-78 = tested on: SNB-78
SW-620 = tested on: SW-620
TK-10 = tested on: TK-10
U-251 = tested on: U-251
UACC-257 = tested on: UACC-257
UACC-62 = tested on: UACC-62
UO-31 = tested on: UO-31
XF498 = tested on: XF498
CAKI-1 = tested on: CAKI-1
HOP-92 = tested on: HOP-92
MOLT-4 = tested on: MOLT-4
RPMI-8226 = tested on: RPMI-8226
SR = tested on: SR

## COC(=O)CCC(NC(=S)N/N=C(\C)c1ccco1)C(=O)OC (stereo unspecified)
786-0
  GI50: > 100 µM (inactive)
A498
  GI50: > 100 µM (inactive)
A549
  GI50: > 100 µM (inactive)
ACHN
  GI50: > 100 µM (inactive)
CCRF-CEM
  GI50: > 100 µM (inactive)
COLO 205
  GI50: > 100 µM (inactive)
DLD-1
  GI50: > 100 µM (inactive)
DMS-114
  GI50: > 100 µM (inactive)
DMS-273
  GI50: > 100 µM (inactive)
EKVX
  GI50: > 100 µM (inactive)
HCC 2998
  GI50: > 100 µM (inactive)
HCT-116
  GI50: > 100 µM (inactive)
HCT-15
  GI50: > 100 µM
HL-60
  GI50: > 100 µM (inactive)
HOP-18
  GI50: > 100 µM (inactive)
HOP-62
  GI50: > 100 µM (inactive)
HT-29
  GI50: > 100 µM (inactive)
IGROV-1
  GI50: > 100 µM (inactive)
K562
  GI50: > 100 µM (inactive)
KM-20L2
  GI50: > 100 µM (inactive)
KM12
  GI50: > 100 µM (inactive)
LOX IMVI
  GI50: > 100 µM (inactive)
LXFL 529
  GI50: > 100 µM (inactive)
M14
  GI50: > 100 µM (inactive)
M19-MEL
  GI50: > 100 µM (inactive)
Malme-3M
  GI50: > 100 µM (inactive)
NCI-H226
  GI50: > 100 µM (inactive)
NCI-H23
  GI50: > 100 µM (inactive)
NCI-H460
  GI50: > 100 µM (inactive)
NCI-H522
  GI50: > 100 µM (inactive)
OVCAR-3
  GI50: > 100 µM (inactive)
OVCAR-4
  GI50: > 100 µM (inactive)
OVCAR-5
  GI50: > 100 µM (inactive)
OVCAR-8
  GI50: > 100 µM (inactive)
RXF 393
  GI50: > 100 µM (inactive)
RXF 631
  GI50: > 100 µM (inactive)
SF-268
  GI50: > 100 µM (inactive)
SF-295
  GI50: > 100 µM (inactive)
SF-539
  GI50: > 100 µM (inactive)
SK-MEL-28
  GI50: > 100 µM (inactive)
SK-MEL-2
  GI50: > 100 µM (inactive)
SK-MEL-5
  GI50: > 100 µM (inactive)
SK-OV-3
  GI50: > 100 µM (inactive)
SN12C
  GI50: > 100 µM (inactive)
SNB-19
  GI50: > 100 µM (inactive)
SNB-75
  GI50: > 100 µM (inactive)
SNB-78
  GI50: > 100 µM (inactive)
SW-620
  GI50: > 100 µM (inactive)
TK-10
  GI50: > 100 µM (inactive)
U-251
  GI50: > 100 µM (inactive)
UACC-257
  GI50: > 100 µM (inactive)
UACC-62
  GI50: > 100 µM (inactive)
UO-31
  GI50: > 100 µM (inactive)
XF498
  GI50: > 100 µM (inactive)

## COC(=O)C(CC(=O)Nc1ccc(Cl)c(Cl)c1)C(=O)C(=O)Nc1ccc(Cl)c(Cl)c1 (stereo unspecified)
786-0
  GI50: > 100 µM (inactive)
A498
  GI50: > 100 µM (inactive)
A549
  GI50: > 100 µM (inactive)
ACHN
  GI50: > 100 µM (inactive)
CAKI-1
  GI50: > 100 µM (inactive)
CCRF-CEM
  GI50: > 100 µM (inactive)
COLO 205
  GI50: > 100 µM (inactive)
DMS-114
  GI50: > 100 µM (inactive)
DMS-273
  GI50: > 100 µM (inactive)
EKVX
  GI50: > 100 µM (inactive)
HCC 2998
  GI50: > 100 µM (inactive)
HCT-116
  GI50: > 100 µM (inactive)
HCT-15
  GI50: > 100 µM
HL-60
  GI50: > 100 µM (inactive)
HOP-18
  GI50: 50.7 µM (inactive)
HOP-62
  GI50: > 100 µM (inactive)
HOP-92
  GI50: > 100 µM (inactive)
HT-29
  GI50: > 100 µM (inactive)
IGROV-1
  GI50: > 100 µM (inactive)
K562
  GI50: > 100 µM (inactive)
KM-20L2
  GI50: > 100 µM (inactive)
KM12
  GI50: > 100 µM (inactive)
LOX IMVI
  GI50: > 100 µM (inactive)
LXFL 529
  GI50: > 100 µM (inactive)
M14
  GI50: > 100 µM (inactive)
M19-MEL
  GI50: > 100 µM (inactive)
MOLT-4
  GI50: 94.6 µM (inactive)
Malme-3M
  GI50: > 100 µM (inactive)
NCI-H226
  GI50: > 100 µM (inactive)
NCI-H23
  GI50: > 100 µM (inactive)
NCI-H460
  GI50: > 100 µM (inactive)
NCI-H522
  GI50: > 100 µM (inactive)
OVCAR-3
  GI50: > 100 µM (inactive)
OVCAR-4
  GI50: > 100 µM (inactive)
OVCAR-5
  GI50: > 100 µM (inactive)
OVCAR-8
  GI50: > 100 µM (inactive)
RPMI-8226
  GI50: > 100 µM (inactive)
RXF 393
  GI50: > 100 µM (inactive)
RXF 631
  GI50: > 100 µM (inactive)
SF-268
  GI50: > 100 µM (inactive)
SF-295
  GI50: > 100 µM (inactive)
SF-539
  GI50: > 100 µM (inactive)
SK-MEL-28
  GI50: > 100 µM (inactive)
SK-MEL-2
  GI50: > 100 µM (inactive)
SK-MEL-5
  GI50: > 100 µM (inactive)
SK-OV-3
  GI50: > 100 µM (inactive)
SN12C
  GI50: > 100 µM (inactive)
SNB-19
  GI50: > 100 µM (inactive)
SNB-75
  GI50: > 100 µM (inactive)
SNB-78
  GI50: > 100 µM (inactive)
SR
  GI50: 33.3 µM (inactive)
SW-620
  GI50: > 100 µM (inactive)
TK-10
  GI50: > 100 µM (inactive)
U-251
  GI50: > 100 µM (inactive)
UACC-257
  GI50: > 100 µM (inactive)
UACC-62
  GI50: > 100 µM (inactive)
UO-31
  GI50: > 100 µM (inactive)
